Measurements published in patent publication US9701625B2, “Nitrone compounds and their use in personal care” (Dow Global Technologies LLC, priority 2014, dated 2017).

Experiment: Oxygen Radical Absorbance Capacity (ORAC) protocol
Conditions: for TEAC: Trolox equivalent AO capacity calculated from ORAC values; for TEAC values compared to the compounds of the invention: in words
Method: Antioxidant potential is evaluated using the Oxygen Radical Absorbance Capacity (ORAC) protocol. ORAC is a chemical in-vitro method based on the hydrogen atom transfer (HAT) mechanism (see N. Re et al., Free Radical Biology & Medicine, 26 (9/10), 1231 (1997)). ORAC measures antioxidant inhibition of peroxyl radical induced oxidations and thus reflects classical radical chain breaking antioxidant activity by H atom transfer. In this assay, the peroxyl radical reacts with a fluorescent probe to form a non-fluorescent product. This is quantitated using a fluorescence measurement. Antioxidant capacity is determined by decreased rate and amount of product formed over time. This assay depends upon the free radical damage to the fluorescent probe resulting in the change in its fluorescence intensity. The change of fluorescence intensity is an indicator of the degree of free radical damage. In the presence of an antioxidant, the inhibition of free radical damage is reflected in higher fluorescence intensity and can be measured as antioxidant capacity against the free radicals. The uniqueness of ORAC assay is that the reaction is driven to completion. This allows calculation of the area under the curve (AUC) and gives an absolute quantitation of antioxidancy as opposed to relative measurements in many other assays.
As noted, the longer it takes to observe a decrease in fluorescence, the higher the antioxidant (AO) potential. From the AUC for a given antioxidant, the AUC for blank is subtracted to give its ORAC value. The concentration of AO needed to give the same AUC values as Trolox is calculated and used to represent the Trolox equivalent AO Capacity (TEAC). Trolox is ((±)-6-Hydroxy-2,5,7,8-tetramethylchromane-2-carboxylic acid, CAS #53188-07-1), and is used as an internal control.
The ORAC test is conducted in the compounds of Table 1 above (inventive compounds) as well as to Vitamin C, Vitamin E, and the following comparative compounds:
The inventive nitrones in the ORAC test solutions were at a concentration of 30 micromolar, while the concentrations of Trolox, Vitamin C, Vitamin E, BHT, PBN+BHT, and VAL-IPHA were at 100 micromolar. The TEAC values calculated from the ORAC values are listed the Table 2.

[1] = inventive nitrones at 30 micromolar
[2] = test concentration 100 micromolar

| Compound | TEAC [1] | TEAC values compared to the compounds of the invention | TEAC [2] |
| --- | --- | --- | --- |
| [O-]/[N+](=C\c1ccc(O)cc1)Cc1ccc(O)cc1 [compound 2] | 2.94 | – | – |
| CC(C)(C)/[N+]([O-])=C/c1ccccc1 [PBN] | – | not very high | – |
| O=C1O[C@H]([C@@H](O)CO)C(O)=C1O [Vitamin C] | – | – | 0.76 |
| Cc1cc(C(C)(C)C)c(O)c(C(C)(C)C)c1 [BHT] | – | not very high | 0.11-0.21 |
| COc1cc(/C=[N+](\[O-])Cc2ccc(O)cc2O)ccc1O [compound 1] | 6.45 | – | – |
| Vitamin E | – | – | 0.13 |
| CCCC/C=[N+](\[O-])C(C)C [VAL-IPHA] | – | not very high | 0.18 |
